Measured values taken from ChEMBL document CHEMBL3885881, “DrugMatrix”.

Organism: Rattus norvegicus
Test: DrugMatrix - Regimen: Daily Repeat
Format: toxicity, organism-based, Sprague-Dawley
Design: regimen Daily Repeat, gender Male, age 6-8 weeks
Conditions: in vivo, po, route oral GAVAGE, vehicle .5 % CMC; for BASOPHIL / EOSINOPHIL / ERYTHROCYTE COUNT / HEMATOCRIT / HEMOGLOBIN / LEUKOCYTE COUNT / LYMPHOCYTE / MEAN CORPUSCULAR HEMOGLOBIN / MEAN CORPUSCULAR HEMOGLOBIN CONCENTRATION / MEAN CORPUSCULAR VOLUME / MONOCYTE / NEUTROPHIL / PLATELET COUNT: tissue Blood; for ALANINE AMINOTRANSFERASE / ALBUMIN / ALKALINE PHOSPHATASE / ASPARTATE AMINOTRANSFERASE / BLOOD UREA NITROGEN / CHLORIDE / CHOLESTEROL / CREATINE PHOSPHOKINASE / CREATININE / GLUCOSE / PHOSPHORUS / POTASSIUM / SODIUM / TOTAL PROTEIN: tissue Plasma
[1] = 0 mg/kg, 72 h, dose level Control, time 3 day
[2] = 0 mg/kg, 120 h, dose level Control, time 5 day
[3] = 3 mg/kg, 72 h, dose level Low, time 3 day
[4] = 3 mg/kg, 120 h, dose level Low, time 5 day
[5] = 37 mg/kg, 72 h, dose level High, time 3 day
[6] = 37 mg/kg, 120 h, dose level High, time 5 day

CN1CCC(=C2c3ccccc3C=Cc3ccccc32)CC1 [CYPROHEPTADINE]
BASOPHIL [1]: 0%
EOSINOPHIL [1]: 0.33%
ERYTHROCYTE COUNT [1]: 6.03 x10E6/uL
HEMATOCRIT [1]: 38.8%
HEMOGLOBIN [1]: 14.26 G/DL
LEUKOCYTE COUNT [1]: 10.64 x10E3/uL
LYMPHOCYTE [1]: 83.33%
MEAN CORPUSCULAR HEMOGLOBIN [1]: 23.64 pg
MEAN CORPUSCULAR HEMOGLOBIN CONCENTRATION [1]: 36.74 G/DL
MEAN CORPUSCULAR VOLUME [1]: 64.32 fL
MONOCYTE [1]: 3.33%
NEUTROPHIL [1]: 13%
PLATELET COUNT [1]: 1264.4 x10E3/uL
ALANINE AMINOTRANSFERASE [1]: 38.83 u/L
ALBUMIN [1]: 3.55 G/DL
ALKALINE PHOSPHATASE [1]: 368.33 u/L
ASPARTATE AMINOTRANSFERASE [1]: 66.17 u/L
BLOOD UREA NITROGEN [1]: 15.67 mg/dL
CHLORIDE [1]: 104.33 MEQ/L
CHOLESTEROL [1]: 76.5 mg/dL
CREATINE PHOSPHOKINASE [1]: 166.83 u/L
CREATININE [1]: 0.52 mg/dL
GLUCOSE [1]: 173.17 mg/dL
PHOSPHORUS [1]: 11.68 mg/dL
POTASSIUM [1]: 6.43 MEQ/L
SODIUM [1]: 149.5 MEQ/L
TOTAL PROTEIN [1]: 5.93 G/DL
BASOPHIL [2]: 0%
EOSINOPHIL [2]: 0%
ERYTHROCYTE COUNT [2]: 5.88 x10E6/uL
HEMATOCRIT [2]: 37.87%
HEMOGLOBIN [2]: 14.48 G/DL
LEUKOCYTE COUNT [2]: 12.43 x10E3/uL
LYMPHOCYTE [2]: 84.17%
MEAN CORPUSCULAR HEMOGLOBIN [2]: 24.65 pg
MEAN CORPUSCULAR HEMOGLOBIN CONCENTRATION [2]: 38.25 G/DL
MEAN CORPUSCULAR VOLUME [2]: 64.47 fL
MONOCYTE [2]: 4.33%
NEUTROPHIL [2]: 11.5%
PLATELET COUNT [2]: 1182.33 x10E3/uL
ALANINE AMINOTRANSFERASE [2]: 38.67 u/L
ALBUMIN [2]: 3.55 G/DL
ALKALINE PHOSPHATASE [2]: 342.5 u/L
ASPARTATE AMINOTRANSFERASE [2]: 63.33 u/L
BLOOD UREA NITROGEN [2]: 15.5 mg/dL
CHLORIDE [2]: 104 MEQ/L
CHOLESTEROL [2]: 75.5 mg/dL
CREATINE PHOSPHOKINASE [2]: 142.5 u/L
CREATININE [2]: 0.62 mg/dL
GLUCOSE [2]: 165.17 mg/dL
PHOSPHORUS [2]: 10.87 mg/dL
POTASSIUM [2]: 6.85 MEQ/L
SODIUM [2]: 150.17 MEQ/L
TOTAL PROTEIN [2]: 5.93 G/DL
BASOPHIL [3]: 0%
EOSINOPHIL [3]: 0%
ERYTHROCYTE COUNT [3]: 6.1 x10E6/uL
HEMATOCRIT [3]: 40.23%
HEMOGLOBIN [3]: 15.13 G/DL
LEUKOCYTE COUNT [3]: 11.03 x10E3/uL
LYMPHOCYTE [3]: 89.33%
MEAN CORPUSCULAR HEMOGLOBIN [3]: 24.8 pg
MEAN CORPUSCULAR HEMOGLOBIN CONCENTRATION [3]: 37.63 G/DL
MEAN CORPUSCULAR VOLUME [3]: 65.97 fL
MONOCYTE [3]: 1%
NEUTROPHIL [3]: 9.67%
PLATELET COUNT [3]: 1191.33 x10E3/uL
ALANINE AMINOTRANSFERASE [3]: 32.67 u/L
ALBUMIN [3]: 3.6 G/DL
ALKALINE PHOSPHATASE [3]: 369 u/L
ASPARTATE AMINOTRANSFERASE [3]: 58 u/L
BLOOD UREA NITROGEN [3]: 13.33 mg/dL
CHLORIDE [3]: 105.67 MEQ/L
CHOLESTEROL [3]: 75.67 mg/dL
CREATINE PHOSPHOKINASE [3]: 139.67 u/L
CREATININE [3]: 0.47 mg/dL
GLUCOSE [3]: 159 mg/dL
PHOSPHORUS [3]: 11.23 mg/dL
POTASSIUM [3]: 6.9 MEQ/L
SODIUM [3]: 151.33 MEQ/L
TOTAL PROTEIN [3]: 5.8 G/DL
BASOPHIL [4]: 0%
EOSINOPHIL [4]: 0.67%
ERYTHROCYTE COUNT [4]: 6.35 x10E6/uL
HEMATOCRIT [4]: 39.23%
HEMOGLOBIN [4]: 14.37 G/DL
LEUKOCYTE COUNT [4]: 13.2 x10E3/uL
LYMPHOCYTE [4]: 89.33%
MEAN CORPUSCULAR HEMOGLOBIN [4]: 22.67 pg
MEAN CORPUSCULAR HEMOGLOBIN CONCENTRATION [4]: 36.63 G/DL
MEAN CORPUSCULAR VOLUME [4]: 61.83 fL
MONOCYTE [4]: 1%
NEUTROPHIL [4]: 9%
PLATELET COUNT [4]: 1248.67 x10E3/uL
ALANINE AMINOTRANSFERASE [4]: 39.67 u/L
ALBUMIN [4]: 3.4 G/DL
ALKALINE PHOSPHATASE [4]: 503.67 u/L
ASPARTATE AMINOTRANSFERASE [4]: 62.67 u/L
BLOOD UREA NITROGEN [4]: 13.67 mg/dL
CHLORIDE [4]: 103.33 MEQ/L
CHOLESTEROL [4]: 70 mg/dL
CREATINE PHOSPHOKINASE [4]: 134 u/L
CREATININE [4]: 0.53 mg/dL
GLUCOSE [4]: 189.33 mg/dL
PHOSPHORUS [4]: 12.93 mg/dL
POTASSIUM [4]: 6.83 MEQ/L
SODIUM [4]: 147.67 MEQ/L
TOTAL PROTEIN [4]: 5.63 G/DL
BASOPHIL [5]: 0%
EOSINOPHIL [5]: 0%
ERYTHROCYTE COUNT [5]: 5.89 x10E6/uL
HEMATOCRIT [5]: 38%
HEMOGLOBIN [5]: 13.37 G/DL
LEUKOCYTE COUNT [5]: 9.03 x10E3/uL
LYMPHOCYTE [5]: 86%
MEAN CORPUSCULAR HEMOGLOBIN [5]: 22.7 pg
MEAN CORPUSCULAR HEMOGLOBIN CONCENTRATION [5]: 35.17 G/DL
MEAN CORPUSCULAR VOLUME [5]: 64.53 fL
MONOCYTE [5]: 3.33%
NEUTROPHIL [5]: 10.67%
PLATELET COUNT [5]: 1233.33 x10E3/uL
ALANINE AMINOTRANSFERASE [5]: 33 u/L
ALBUMIN [5]: 3.67 G/DL
ALKALINE PHOSPHATASE [5]: 296.33 u/L
ASPARTATE AMINOTRANSFERASE [5]: 50.33 u/L
BLOOD UREA NITROGEN [5]: 15 mg/dL
CHLORIDE [5]: 104.67 MEQ/L
CHOLESTEROL [5]: 62.67 mg/dL
CREATINE PHOSPHOKINASE [5]: 128 u/L
CREATININE [5]: 0.5 mg/dL
GLUCOSE [5]: 167.33 mg/dL
PHOSPHORUS [5]: 12.37 mg/dL
POTASSIUM [5]: 7.2 MEQ/L
SODIUM [5]: 150.67 MEQ/L
TOTAL PROTEIN [5]: 5.93 G/DL
BASOPHIL [6]: 0%
EOSINOPHIL [6]: 0.33%
ERYTHROCYTE COUNT [6]: 5.95 x10E6/uL
HEMATOCRIT [6]: 37.4%
HEMOGLOBIN [6]: 13.8 G/DL
LEUKOCYTE COUNT [6]: 11.57 x10E3/uL
LYMPHOCYTE [6]: 87.33%
MEAN CORPUSCULAR HEMOGLOBIN [6]: 23.23 pg
MEAN CORPUSCULAR HEMOGLOBIN CONCENTRATION [6]: 36.93 G/DL
MEAN CORPUSCULAR VOLUME [6]: 62.9 fL
MONOCYTE [6]: 0%
NEUTROPHIL [6]: 12.33%
PLATELET COUNT [6]: 1286.67 x10E3/uL
ALANINE AMINOTRANSFERASE [6]: 35 u/L
ALBUMIN [6]: 3.4 G/DL
ALKALINE PHOSPHATASE [6]: 311.67 u/L
ASPARTATE AMINOTRANSFERASE [6]: 52 u/L
BLOOD UREA NITROGEN [6]: 14 mg/dL
CHLORIDE [6]: 102.33 MEQ/L
CHOLESTEROL [6]: 50.67 mg/dL
CREATINE PHOSPHOKINASE [6]: 124 u/L
CREATININE [6]: 0.53 mg/dL
GLUCOSE [6]: 159.67 mg/dL
PHOSPHORUS [6]: 12.5 mg/dL
POTASSIUM [6]: 6.77 MEQ/L
SODIUM [6]: 148.67 MEQ/L
TOTAL PROTEIN [6]: 5.7 G/DL
